Experimental data taken from patent US12257243B2, “5-hydroxy-7-oxabicyclo[2.2.1]heptane-2-carboxamide derivatives for inducing chondrogenesis for treating joint damage” (NOVARTIS AG, priority 2018, dated 2025).

Tested on: ALP in normal human articular chondrocytes (NHACs)
Test: Alkaline Phosphatase (ALP) activity assay (staining and quantitation) in NHACs, prevention of chondrocyte hypertrophy
Assay type: cell-based
Conditions: Chondrocyte, 288 h, human IL-1 beta 10 ng/mL, 12 days; for IC50: Fast Blue RR staining, high content imaging, read-out: ALP in NHAC IC50; for Emax: value in parentheses, read-out: ALP in NHAC (% Efficacy)
Outline: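 Primary human articular chondrocytes plated at 7,500 cells/well in DMEM with 10% FBS alongside test compound, incubated 5 h at 37 °C, then given IL-1β (10 ng/mL final) for 12 days. Fixed cells stained for ALP with Fast Blue RR/naphthol AS-MX, Hoechst counterstain. Read by fluorescence imaging (561 nm) and/or high-content cell scoring.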

Row | SMILES | IC50 [µM] | Emax [%]
1 | N#Cc1ccc(C(F)(F)F)cc1NC(=O)[C@@H]1[C@@H](c2cccc(C(F)(F)F)c2)[C@H]2O[C@@H]1C[C@@H]2O (racemic) [Example 48, rac-(1R,2R,3S,4R,5S)—N-(2-cyano-5-(trifluoromethyl)phenyl)-5-hydroxy-3-(3-(trifluoromethyl)phenyl)-7-oxabicyclo[2.2.1]heptane-2-carboxamide] | 0.088 | 92
2 | Cn1cc([C@H]2[C@H]3O[C@H](C[C@@H]3O)[C@@H]2C(=O)Nc2cc(C(F)(F)F)ccc2C#N)c(C(F)(F)F)n1 (racemic) [Example 49, rac-(1R,2R,3S,4R,5S)—N-(2-cyano-5-(trifluoromethyl)phenyl)-5-hydroxy-3-(1-methyl-3-(trifluoromethyl)-1H-pyrazol-4-yl)-7-oxabicyclo[2.2.1]heptane-2-carboxamide] | 0.53 | 96
3 | Cn1cc([C@H]2[C@H]3O[C@H](C[C@@H]3O)[C@@H]2C(=O)Nc2cc(C(F)(F)F)cc(C(F)(F)F)c2)c(C(F)(F)F)n1 (racemic) [Example 50, rac-(1R,2R,3S,4R,5S)—N-(3,5-bis(trifluoromethyl)phenyl)-5-hydroxy-3-(1-methyl-3-(trifluoromethyl)-1H-pyrazol-4-yl)-7-oxabicyclo[2.2.1]heptane-2-carboxamide] | 2.3 | 101
4 | Cn1cc([C@H]2[C@H]3O[C@H](C[C@@H]3O)[C@@H]2C(=O)Nc2ccc(C#N)c(C(F)(F)F)c2)c(C(F)(F)F)n1 (racemic) [Example 51, rac-(1R,2R,3S,4R,5S)—N-(4-cyano-3-(trifluoromethyl)phenyl)-5-hydroxy-3-(1-methyl-3-(trifluoromethyl-1H-pyrazol-4-yl)-7-oxabicyclo[2.2.1]heptane-2-carboxamide] | > 30 | 34
5 | Cn1cc([C@H]2[C@H]3O[C@H](C[C@@H]3O)[C@@H]2C(=O)Nc2cc(C(F)(F)F)ccc2F)c(C(F)(F)F)n1 (racemic) [Example 52, rac-(1R,2R,3S,4R,5S)—N-(2-fluoro-5-(trifluoromethyl)phenyl)-5-hydroxy-3-(1-methyl-3-(trifluoromethyl)-1H-pyrazol-4-yl)-7-oxabicyclo[2.2.1]heptane-2-carboxamide] | 4.2 | 73
6 | Cn1cc([C@H]2[C@H]3O[C@H](C[C@@H]3O)[C@@H]2C(=O)Nc2ccc(Cl)c(C(F)(F)F)c2)c(C(F)(F)F)n1 (racemic) [Example 53, rac-(1R,2R,3S,4R,5S)—N-(4-chloro-3-(trifluoromethyl)phenyl)-5-hydroxy-3-(1-methyl-3-(trifluoromethyl)-1H-pyrazol-4-yl)-7-oxabicyclo[2.2.1]heptane-2-carboxamide] | 7.2 | 86
7 | Cc1ccc(C(F)(F)F)cc1NC(=O)[C@@H]1[C@@H](c2cn(C)nc2C(F)(F)F)[C@H]2O[C@@H]1C[C@@H]2O (racemic) [Example 54, rac-(1R,2R,3S,4R,5S)-5-hydroxy-3-(1-methyl-3-(trifluoromethyl)-1H-pyrazol-4-yl)-N-(2-methyl-5-(trifluoromethyl)phenyl)-7-oxabicyclo[2.2.1]heptane-2-carboxamide] | 4.1 | 52
8 | Cn1cc([C@H]2[C@H]3O[C@H](C[C@@H]3O)[C@@H]2C(=O)Nc2ccc(C(F)(F)F)c(F)c2)c(C(F)(F)F)n1 (racemic) [Example 55, rac-(1R,2R,3S,4R,5S)—N-(3-fluoro-4-(trifluoromethylphenyl)-5-hydroxy-3-(1-methyl-3-(trifluoromethyl)-1H-pyrazol-4-yl)-7-oxabicyclo[2.2.1]heptane-2-carboxamide] | 16 | 65
9 | Cn1cc([C@H]2[C@H]3O[C@H](C[C@@H]3O)[C@@H]2C(=O)Nc2cccc(C(F)(F)F)c2F)c(C(F)(F)F)n1 (racemic) [Example 57, rac-(1R,2R,3S,4R,5S)—N-(2-fluoro-3-(trifluoromethyl)phenyl)-5-hydroxy-3-(1-methyl-3-(trifluoromethyl-1H-pyrazol-4-yl)-7-oxabicyclo[2.2.1]heptane-2-carboxamide] | > 30 | 50
10 | Cn1cc([C@H]2[C@H]3O[C@H](C[C@@H]3O)[C@@H]2C(=O)Nc2ccc(C(F)(F)F)c(Cl)c2)c(C(F)(F)F)n1 (racemic) [Example 58, rac-(1R,2R,3S,4R,5S)—N-(3-chloro-4-(trifluoromethyl)phenyl)-5-hydroxy-3-(1-methyl-3-(trifluoromethyl)-1H-pyrazol-4-yl)-7-oxabicyclo[2.2.1]heptane-2-carboxamide] | 10 | 102
11 | CC(C)n1cc([C@H]2[C@H]3O[C@H](C[C@@H]3O)[C@@H]2C(=O)Nc2cccc(C(F)(F)F)c2)c(C(F)(F)F)n1 (racemic) [Example 59, rac-(1R,2R,3S,4R,5S)-5-hydroxy-3-(1-isopropyl-3-(trifluoromethyl)-1H-pyrazol-4-yl)-N-(3-(trifluoromethyl)phenyl)-7-oxabicyclo[2.2.1]heptane-2-carboxamide] | 14 | 70
12 | Cc1ccc(NC(=O)[C@@H]2[C@@H](c3cc(C(F)(F)F)nn3C)[C@H]3O[C@@H]2C[C@@H]3O)cc1C(F)(F)F (racemic) [Example 60, rac-(1R,2R,3S,4R,5S)-5-hydroxy-3-(1-methyl-3-(trifluoromethyl)-1H-pyrazol-5-yl)-N-(4-methyl-3-(trifluoromethyl)phenyl)-7-oxabicyclo[2.2.1]heptane-2-carboxamide] | 13 | 81
13 | Cn1nc(C(F)(F)F)cc1[C@H]1[C@H]2O[C@H](C[C@@H]2O)[C@@H]1C(=O)Nc1cccc(C(F)(F)F)c1 (racemic) [Example 61, rac-(1R,2R,3S,4R,5S)-5-hydroxy-3-(1-methyl-3-(trifluoromethyl)-1H-pyrazol-5-yl)-N-(3-(trifluoromethyl)phenyl)-7-oxabicyclo[2.2.1]heptane-2-carboxamide] | 21 | 46
14 | Cn1nc(C(F)(F)F)cc1[C@H]1[C@H]2O[C@H](C[C@@H]2O)[C@@H]1C(=O)Nc1ccc(C(F)(F)F)cc1 (racemic) [Example 62, rac-(1R,2R,3S,4R,5S)-5-hydroxy-3-(1-methyl-3-(trifluoromethyl)-1H-pyrazol-5-yl)-N-(4-(trifluoromethyl)phenyl)-7-oxabicyclo[2.2.1]heptane-2-carboxamide] | 16 | 73
15 | O=C(Nc1cccc(C(F)(F)F)c1)[C@@H]1[C@@H](c2ccnc(C(F)(F)F)c2)[C@H]2O[C@@H]1C[C@@H]2O (racemic) [Example 63, rac-(1R,2R,3S,4R,5S)-5-hydroxy-N-(3-(trifluoromethyl)phenyl)-3-(2-(trifluoromethyl)pyridin-4-yl)-7-oxabicyclo[2.2.1]heptane-2-carboxamide] | 18 | 44
16 | Cc1ccc(NC(=O)[C@@H]2[C@@H](c3ccnc(C(F)(F)F)c3)[C@H]3O[C@@H]2C[C@@H]3O)cc1C(F)(F)F (racemic) [Example 64, rac-(1R,2R,3S,4R,5S)-5-hydroxy-N-(4-methy-3-(trifluoromethyl)phenyl-3-(2-(trifluoromethyl)pyridin-4-yl)-7-oxabicyclo[2.2.1]heptane-2-carboxamide] | 13 | 83
17 | Cc1cc(NC(=O)[C@@H]2[C@@H](c3ccnc(C(F)(F)F)c3)[C@H]3O[C@@H]2C[C@@H]3O)cc(C(F)(F)F)c1 (racemic) [Example 65, rac-(1R,2R,3S,4R,5S)-5-hydroxy-N-(3-methyl-5-(trifluoromethyl)phenyl)-3-(2-(trifluoromethyl)pyridin-4-yl)-7-oxabicyclo[2.2.1]heptane-2-carboxamide] | 20 | 57
18 | O=C(Nc1ccc(C(F)(F)F)cc1)[C@@H]1[C@@H](c2ccnc(C(F)(F)F)c2)[C@H]2O[C@@H]1C[C@@H]2O (racemic) [Example 66, rac-(1R,2R,3S,4R,5S)-5-hydroxy-N-(4-(trifluoromethyl)phenyl)-3-(2-(trifluoromethyl)pyridin-4-yl)-7-oxabicyclo[2.2.1]heptane-2-carboxamide] | 15 | 66
19 | COc1cc([C@H]2[C@H]3O[C@H](C[C@@H]3O)[C@@H]2C(=O)Nc2ccc(C(F)(F)F)cc2)ccn1 (racemic) [Example 67, rac-(1R,2R,3S,4R,5S)-5-hydroxy-3-(2-methoxypyridin-4-yl)-N-(4-(trifluoromethyl)phenyl)-7-oxabicyclo[2.2.1]heptane-2-carboxamide] | > 30 | 27
20 | COc1cc([C@H]2[C@H]3O[C@H](C[C@@H]3O)[C@@H]2C(=O)Nc2ccc(C)c(C(F)(F)F)c2)ccn1 (racemic) [Example 68, rac-(1R,2R,3,4R,5S)-5-hydroxy-3-(2-methoxypyridin-4-yl)-N-(4-methyl-3-(trifluoromethyl)phenyl)-7-oxabicyclo[2.2.1]heptane-2-carboxamide] | > 30 | 31
21 | COc1cc([C@H]2[C@H]3O[C@H](C[C@@H]3O)[C@@H]2C(=O)Nc2cc(C)cc(C(F)(F)F)c2)ccn1 (racemic) [Example 69, rac-(1R,2R,3S,4R,5S)-5-hydroxy-3-(2-methoxypyridin-4-yl)-N-(3-methyl-5-(trifluoromethylphenyl)-7-oxabicyclo[2.2.1]heptane-2-carboxamide] | 25 | 29
22 | COc1cc([C@H]2[C@H]3O[C@H](C[C@@H]3O)[C@@H]2C(=O)Nc2cccc(C(F)(F)F)c2)ccn1 (racemic) [Example 70, rac-(1R,2R,3S,4R,5S)-5-hydroxy-3-(2-methoxypyridin-4-yl)-N-(3-(trifluoromethyl)phenyl)-7-oxabicyclo[2.2.1]heptane-2-carboxamide] | > 30 | 13
